Results on 13 compounds are retold here after ChEMBL document CHEMBL4814003, “Novel dual-mode antitumor chlorin-based derivatives as potent photosensitizers and histone deacetylase inhibitors for photodynamic therapy and chemotherapy” (Eur J Med Chem, 2021).

Experiment [1] concerns HCT-116. Put plainly: Phototoxicity in human HCT-116 cells assessed as reduction in cell viability irradiated 10 j/cm2 for 24 hrs followed by incubated for 24 hrs by CCK8 assay. The class given is functional, cell-based. The conditions noted are these: HCT-116, light or radiation study.
Experiment [2] deals with A549. Description: Phototoxicity in human A549 cells assessed as reduction in cell viability irradiated 10 j/cm2 for 24 hrs followed by incubated for 24 hrs by CCK8 assay. In kind it is functional, cell-based. The conditions noted are these: A549, light or radiation study. In general terms: Tetrazolium dyes change colour on reduction, which living cells bring about.
The target of another experiment is Histone deacetylase 1 (Homo sapiens, UniProt Q13547). Put plainly: Inhibition of human recombinant HDAC1 using Ac-Leu-Gly-Lys(Ac)-AMC as substrate by measuring fluorescence intensity incubated for 30 mins by microplate reader assay.
The test system of experiment [3] is A549. Put plainly: Dark toxicity in human A549 cells assessed as reduction in cell viability incubated under dark for 48 hrs measured after 48 hrs by CCK8 assay. In kind it is functional, cell-based. The conditions noted are these: A549, 48 h.
Experiment [4] relates to HCT-116. Put plainly: Dark toxicity in human HCT-116 cells assessed as reduction in cell viability incubated under dark for 48 hrs measured after 48 hrs by CCK8 assay. The class given is functional, cell-based. The conditions noted are these: HCT-116, 48 h.
The subject of experiment [5] is A549. Description: Induction of reactive oxygen species generation in human A549 cells assessed as mean count value at 0.01 uM incubated for 24 hrs by DCFH-DA staining based fluorescence microscopy assay. In kind it is functional.
The test system of experiment [6] is A549. Put plainly: Induction of reactive oxygen species generation in human A549 cells assessed as mean count value at 0.05 uM incubated for 24 hrs by DCFH-DA staining based fluorescence microscopy assay. The class given is functional.
The subject of experiment [7] is A549. Put plainly: Induction of autophagy in human A549 cells irradiated 10 j/cm2 at 0.1 uM after 24 hrs using fluorescent molecule DAPRed. The class given is functional.

Chain of Histone deacetylase 1 (Q13547 whole entry): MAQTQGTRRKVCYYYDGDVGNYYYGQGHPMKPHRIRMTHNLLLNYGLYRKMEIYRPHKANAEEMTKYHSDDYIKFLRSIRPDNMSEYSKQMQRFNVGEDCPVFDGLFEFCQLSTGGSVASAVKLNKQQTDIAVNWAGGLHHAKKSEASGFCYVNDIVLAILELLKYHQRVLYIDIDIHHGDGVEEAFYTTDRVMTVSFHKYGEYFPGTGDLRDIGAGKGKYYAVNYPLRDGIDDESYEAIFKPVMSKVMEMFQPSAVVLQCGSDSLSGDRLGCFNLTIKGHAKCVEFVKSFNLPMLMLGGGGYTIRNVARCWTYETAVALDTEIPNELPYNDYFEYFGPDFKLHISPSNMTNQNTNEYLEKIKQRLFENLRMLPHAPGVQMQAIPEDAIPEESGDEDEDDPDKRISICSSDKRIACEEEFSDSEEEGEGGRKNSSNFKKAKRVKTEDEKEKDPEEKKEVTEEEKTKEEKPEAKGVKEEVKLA

In general, IC50 refers to the concentration that inhibits the measured activity by half. As for `C=Cc1c(C)c2cc3nc(c(C(=O)OC)c4[nH]c(cc5nc(cc1[nH]2)C(C)=C5CC)c(C)c4C(=O)OC)[C@@H](CCC(=O)NCCCCC(=O)Nc1ccccc1N)[C@@H]3C`, the IC50 in the experiment with HCT-116 [1] came out at 260 nM; with A549 [2], 300 nM; on Histone deacetylase 1, 81000 nM; with A549 [3], 3510 nM; in the experiment on HCT-116 [4] it was 8630 nM.

`C=Cc1c(C)c2cc3nc(c(C(=O)OC)c4[nH]c(cc5nc(cc1[nH]2)C(C)=C5CC)c(C)c4C(=O)OC)[C@@H](CCC(=O)O)[C@@H]3C`: the concentration for half-maximal inhibition (IC50) worked out at 520 nM in the experiment with HCT-116 [1], 300 nM in the experiment on A549 [2], 15700 nM with A549 [3] and 31300 nM in the experiment with HCT-116 [4].

For the compound `C=Cc1c(C)c2cc3nc(c(C(=O)OC)c4[nH]c(cc5nc(cc1[nH]2)C(C)=C5CC)c(C)c4C(=O)OC)[C@@H](CCC(=O)NCCCCCC(=O)Nc1ccccc1N)[C@@H]3C`, the IC50 turned out to be 210 nM in the experiment on HCT-116 [1]; 230 nM in the experiment on A549 [2]; 90000 nM at Histone deacetylase 1; 2670 nM in the experiment on A549 [3]; 9280 nM with HCT-116 [4].

For `C=Cc1c(C)c2cc3nc(c(C(=O)OC)c4[nH]c(cc5nc(cc1[nH]2)C(C)=C5CC)c(C)c4C(=O)OC)[C@@H](CCC(=O)NO)[C@@H]3C`, the IC50 in the experiment with HCT-116 [1] was 11 nM; in the experiment with A549 [2] it was 130 nM; on Histone deacetylase 1, 79000 nM; with A549 [3] it was 370 nM; with HCT-116 [4], 4180 nM.

With `C=Cc1c(C)c2cc3nc(c(C(=O)OC)c4[nH]c(cc5nc(cc1[nH]2)C(C)=C5CC)c(C)c4C(=O)OC)[C@@H](CCC(=O)NCCCCCC(=O)NO)[C@@H]3C`, the IC50 in the experiment on HCT-116 [1] worked out at 39 nM; with A549 [2] it was 120 nM; at Histone deacetylase 1, 88000 nM; in the experiment on A549 [3] it was 1360 nM; with HCT-116 [4], 6890 nM.

For the compound `C=Cc1c(C)c2cc3nc(c(CC(=O)N[C@@H](CC(=O)O)C(=O)O)c4[nH]c(cc5nc(cc1[nH]2)C(C)=C5CC)c(C)c4C(=O)O)[C@@H](CCC(=O)O)[C@@H]3C` [TALAPORFIN], the IC50 with HCT-116 [1] stood at 2950 nM; in the experiment with A549 [2] it was 6210 nM; with A549 [3], 181000 nM; with HCT-116 [4] it was 50700 nM. The results for the Activity in the experiment with A549 [5], in the experiment with A549 [6] and in the experiment with A549 [7] were 125.93, 153.14 and 19.08%, respectively.

Take `C=Cc1c(C)c2cc3nc(c(C(=O)OC)c4[nH]c(cc5nc(cc1[nH]2)C(C)=C5CC)c(C)c4C(=O)OC)[C@@H](CCC(=O)NCCCC(=O)Nc1ccccc1N)[C@@H]3C`: the IC50 is 330 nM in the experiment on HCT-116 [1]; 310 nM in the experiment on A549 [2]; 201000 nM at Histone deacetylase 1; 3730 nM with A549 [3]; 9140 nM in the experiment with HCT-116 [4].

With `C=Cc1c(C)c2cc3nc(c(C(=O)OC)c4[nH]c(cc5nc(cc1[nH]2)C(C)=C5CC)c(C)c4C(=O)OC)[C@@H](CCC(=O)NCCCCC(=O)NO)[C@@H]3C`, the IC50 was 108 nM in the experiment with HCT-116 [1]; 180 nM in the experiment with A549 [2]; 49000 nM on Histone deacetylase 1; 1510 nM in the experiment with A549 [3]; 2810 nM in the experiment with HCT-116 [4].

Consider `C=Cc1c(C)c2cc3nc(c(C(=O)OC)c4[nH]c(cc5nc(cc1[nH]2)C(C)=C5CC)c(C)c4C(=O)OC)[C@@H](CCC(=O)NCCCC(=O)NO)[C@@H]3C`, for which the half-inhibitory concentration (IC50) was 220 nM in the experiment with HCT-116 [1]; 220 nM in the experiment on A549 [2]; 40000 nM on Histone deacetylase 1; 1840 nM in the experiment on A549 [3]; 5540 nM with HCT-116 [4].

Regarding `C=Cc1c(C)c2cc3nc(cc4[nH]c(cc5nc(cc1[nH]2)C(C)=C5CC)c(C)c4C(=O)OC)[C@@H](CCC(=O)O)[C@@H]3C`, the IC50 in the experiment with HCT-116 [1] stood at 1470 nM; in the experiment on A549 [2], 920 nM; in the experiment on A549 [3], 15300 nM; in the experiment on HCT-116 [4], 21800 nM.

In the case of `C=Cc1c(C)c2cc3nc(c(C(=O)OC)c4[nH]c(cc5nc(cc1[nH]2)C(C)=C5CC)c(C)c4C(=O)OC)[C@@H](CCC(=O)Nc1ccc(C(=O)NO)cc1)[C@@H]3C`, the IC50 in the experiment with HCT-116 [1] amounted to 270 nM; in the experiment on A549 [2], 130 nM; on Histone deacetylase 1, 11000 nM; with A549 [3], 930 nM; with HCT-116 [4], 3490 nM.

Regarding `C=Cc1c(C)c2cc3nc(cc4[nH]c(cc5nc(cc1[nH]2)C(C)=C5CC)c(C)c4C(=O)OC)[C@@H](CCC(=O)Nc1ccc(C(=O)NO)cc1)[C@@H]3C`, the IC50 with HCT-116 [1] was determined as 31 nM; in the experiment with A549 [2], 900 nM; on Histone deacetylase 1, 28000 nM; in the experiment with A549 [3], 9240 nM; with HCT-116 [4], 4600 nM.

As for `C=Cc1c(C)c2cc3nc(c(C(=O)OC)c4[nH]c(cc5nc(cc1[nH]2)C(C)=C5CC)c(C)c4C(=O)OC)[C@@H](CCC(=O)Nc1ccccc1N)[C@@H]3C`, the IC50 in the experiment with HCT-116 [1] amounted to 23 nM; in the experiment on A549 [2] it was 180 nM; on Histone deacetylase 1, 224000 nM; in the experiment on A549 [3], 590 nM; in the experiment on HCT-116 [4] it was 4140 nM.
